This is an account of results in patent US6596064B2, “Biocidal-antifouling agents with low ecotoxicity index” (Luigi Stoppani S.p.A., priority 1999, dated 2003).

SMILES strings stand for the structures.

In test [1] the test system is vegetation and micro-organisms (algae, bryozoas, acorn barnacles, polichaetas). The test can be described thus: Example 3: antifouling paints on fibreglass panels immersed in seawater (dockyard of Genoa), comparison with MSB and Ciclor 98. To be noted: for 2^ Controls after a four month exposure: 0.8% in hard-matrix antifouling paint, +Cu2O per Table V (panels P1, P2), seawater, Genoa; for antifouling activity: 5% in paint, not associated with Cu2O (panels P4, P5, N), MBP and MTB more than Ciclor 98 (panel P7); for antifouling effectiveness: in association with Cu2O (panels P1, P2 and P8), synergistic action. The text has this: The compounds MBP and MTB were examined in different percentages, in hard-matrix antifouling formulations. The tests included the use of Ciclor 98, the use of the menadione sodium bisulphite (MSB) and a control panel (untreated), as is shown in Table V:
The prepared paints were applied to the fibreglass panels previously treated with a coating of epoxy paint and then immersed in seawater (dockyard of Genoa, Italy, 21/7/1999).
To determine the deposition or formation of vegetation and micro-organisms, both qualitatively and quantitatively, and to evaluate the antifouling activity of the samples, two different controls were carried out after two months (1^control) and after 4 months (2^control).

Test [2] deals with vegetation and micro-organisms (algae, serpulidae, acorn barnacles, bryozoas). Description: Example 1: antifouling paints on fibreglass panels immersed in seawater (dockyard of La Spezia). To be noted: 5% in hard-matrix antifouling paint, +Cu2O (panels P34, P35). An excerpt:
The compounds MBP and MTB were examined in different percentages, singularly and/or in combination, in hard-matrix antifouling formulations containing or not containing copper, as reported in Table I:
The different paints were applied to the fibreglass panels previously treated with a coating of epoxy paint and then immersed in seawater (dockyard of La Spezia, Italy, 9/5/2000). To determine the deposition or formation of vegetation and micro-organisms, both qualitatively and quantitatively, and to evaluate the antifouling activity of the samples, two different controls were carried out after two months (1^control) and after six months (2^control).

Test [3] has as its system vegetation and micro-organisms (algae, bryozoas, acorn barnacles, polichaetas). The test can be described thus: Example 2: antifouling paints on fibreglass panels immersed in seawater (dockyard of Genoa), comparison with Ciclor 98. To be noted: for 2^ Controls after a four month exposure: 5% in hard-matrix antifouling paint, no copper (panels P2, P3, P4), seawater, Genoa; for antifouling activity compared to commercial antifouling product Ciclor 98: hard-matrix paints, no copper, seawater Genoa. The text has this: The compounds MBP and MTB were examined in different percentages, in hard-matrix antifouling formulations. The tests included the use of a common commercial antifouling product, Ciclor 98, which contains […] as active ingredient, largely used in the formulation of yatch paints, and a control panel (untreated, without biocide), as it is shown in Table III:
The prepared paints were applied to the fibreglass panels previously treated with a coating of epoxy paint and then immersed in seawater (dockyard of Genoa, Italy, 21/7/1999). To determine the deposition or formation of vegetation and micro-organisms, both qualitatively and quantitatively, and to evaluate the antifouling activity of the samples, two different controls were carried out after two months (1^control) and after 4 months (2^control).

Turning to `C1CNCCN1.CC1(S(=O)(=O)O)CC(=O)c2ccccc2C1=O.CC1(S(=O)(=O)O)CC(=O)c2ccccc2C1=O` (stereo not shown) [MBP, menadione (bis) piperazine bisulfite], in test [1], the “2^ Controls after a four month exposure” value is reported as “Clean”, the antifouling activity entry is listed as “excellent antifouling activity” and the antifouling effectiveness entry is on record as “excellent antifouling effectiveness”. Moreover, the “2^ Control after a six month exposure” value in test [2] was “A few green algae”. For the same compound, in test [3], the “2^ Controls after a four month exposure” value is “Clean” and the “antifouling activity compared to commercial antifouling product Ciclor 98” value was “increased antifouling activity”.
With `CC1(S(=O)(=O)[O-])CC(=O)c2ccccc2C1=O.[Na+]` (stereo not shown) [MSB, menadione sodium bisulphite, reference compound], in test [1], the antifouling activity result was “did not show any antifouling activity”.
For the compound `CC1(S(=O)(=O)O)CC(=O)c2ccccc2C1=O.Nc1nc(N)nc(N)n1` (stereo not shown) [MTB, menadione triaminotriazine bisulfite], in test [1], the “2^ Controls after a four month exposure” value is “Clean”, the antifouling activity result is reported as “excellent antifouling activity” and the antifouling effectiveness entry is recorded as “excellent antifouling effectiveness”. For the same compound, in test [2], the “2^ Control after a six month exposure” value is reported as “A few green algae”. Further, in test [3], the “2^ Controls after a four month exposure” value is “Clean” and the “antifouling activity compared to commercial antifouling product Ciclor 98” value is “increased antifouling activity”.
